Results as given in paper PMC4128814, “A High Throughput Screen Identifies Potent and Selective Inhibitors to Human Epithelial 15-Lipoxygenase-2” (PLoS ONE, 2014).
Where two headings read alike, the source gives them in different places.

Key:
[1] = target: T1, 15-LOX-2 (Homo sapiens, UniProt O15296); test: Lipoxygenase UV-Vis assay, 15-LOX-2; assay type: biochemical; settings: for inhibition at 25 µM: read-out: % Inhibition at 25 μM; for potency relative to parent compound: 15-LOX-2
T1 construct: His6 (N); made in house
T1 sequence (O15296 1-676): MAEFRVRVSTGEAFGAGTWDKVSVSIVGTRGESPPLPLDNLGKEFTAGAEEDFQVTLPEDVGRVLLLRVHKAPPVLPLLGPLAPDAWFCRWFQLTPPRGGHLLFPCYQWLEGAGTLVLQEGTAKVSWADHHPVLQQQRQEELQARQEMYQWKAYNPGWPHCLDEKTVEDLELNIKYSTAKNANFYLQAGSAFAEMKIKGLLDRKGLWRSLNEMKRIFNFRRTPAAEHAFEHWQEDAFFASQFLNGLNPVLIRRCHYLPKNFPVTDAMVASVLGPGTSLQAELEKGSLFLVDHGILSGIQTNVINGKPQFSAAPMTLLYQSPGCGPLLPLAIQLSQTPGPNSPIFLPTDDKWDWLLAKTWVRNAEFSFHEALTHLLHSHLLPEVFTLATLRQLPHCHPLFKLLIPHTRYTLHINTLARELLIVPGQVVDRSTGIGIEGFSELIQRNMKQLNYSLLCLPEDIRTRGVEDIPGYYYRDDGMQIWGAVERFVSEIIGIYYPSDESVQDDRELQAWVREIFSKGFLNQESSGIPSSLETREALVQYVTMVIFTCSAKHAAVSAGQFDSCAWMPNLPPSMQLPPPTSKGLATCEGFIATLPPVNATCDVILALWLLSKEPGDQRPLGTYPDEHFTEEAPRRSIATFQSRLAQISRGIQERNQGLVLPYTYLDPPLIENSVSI
Method: The reactions were initiated by adding 200 nM 15-LOX-2, 30 nM 12-LOX, 40 nM 15-LOX-1, or approximately 100–300 nM (5–10 µL) of 5-LOX crude extract to a cuvette with 2 mL reaction buffer, constantly stirred using a magnetic stir bar at room temperature (22°C). Reaction buffers used for various LOX isozymes were as follows: 25 mM HEPES (pH 7.3), 0.3 mM CaCl2, 0.1 mM EDTA, 0.2 mM ATP, 0.01% Triton X-100, 10 µM AA for the crude, ammonium sulfate precipitated 5-LOX; and 25 mM HEPES (pH 7.5), 0.01% Triton X-100, 10 µM AA for 15-LOX-2, 15-LOX-1, and 12-LOX. The substrate concentration was quantitatively determined by allowing the enzymatic reaction to go to completion in the presence of 15-LOX-2. […] The data were then plotted against inhibitor concentration, followed by a hyperbolic saturation curve fit (assuming total enzyme concentration [E]≪IC50). […] All inhibitors were stored at −20°C in DMSO. NDGA was utilized as positive control for the selectivity assays for the various LOX isozymes.
Once the two lead compounds were identified, a limited series of related compounds were identified and screened to investigate structure/activity relationships (Figure 3). […] We are currently exploring this line of inquiry.

[2] = target: T1, 15-LOX-2; settings: control molecules known not to inhibit 15-LOX-2; cited from earlier work
[3] = 25 µM inhibitor, 15-LOX-2, 10 µM AA

inhibition at 25 µM [1, 3] | IC50 ([1]; read-out: 15-LOX-2 IC50) | SMILES | also measured
65% | 5.4 µM | Clc1cccc(CSc2ncn(-c3ccccc3)n2)c1 [MLS000594591] | –
5% | > 100 µM | CCC1CCC(c2nnc(-c3ccc([N+](=O)[O-])cc3)o2)CC1 (stereo not shown) [MLS000723362] | –
94% | 0.74 µM | Clc1ccc(CSc2ncn(-c3ccccc3)n2)cc1 [MLS000550104] | potency relative to parent compound [1]: approximately 4 fold
– | – | O=[N+]([O-])c1cc(-c2nnc(C34CC5CC(CC(C5)C3)C4)o2)cc([N+](=O)[O-])c1 [MLS000544312] | IC50 [1]: > 100 µM; inhibition at 25 µM [1]: 0%
– | – | CC(=O)NC(c1cccs1)c1cc(Br)c2cccnc2c1O (stereo not shown) [ML127] | IC50 [2]: > 100 µM
0% | > 100 µM | CC(=O)Nc1ccc(C(=O)CSc2ncn(-c3ccccc3)n2)cc1 [MLS000108839] | –
53% | 9 µM | Clc1ccccc1CSc1ncn(-c2ccccc2)n1 [MLS000550113] | –
56% | 6.4 µM | c1ccc(CSc2ncn(-c3ccccc3)n2)cc1 [MLS000108825] | –
3% | > 100 µM | O=C(c1nnc(-c2ccccc2)o1)C1CC1 [MLS001033918] | –
4% | > 100 µM | Clc1ccc(-c2nnc(CCc3ccccc3)o2)c(Cl)c1 [MLS000325223] | –
4% | > 100 µM | Clc1ccc(-c2nnc(C3CC3)o2)cc1 [MLS000859524] | –
4% | > 100 µM | c1cncc(-c2nnc(C3CCCCC3)o2)c1 [MLS000033229] | –
14% | > 100 µM | O=[N+]([O-])c1cccc(-c2nnc(C34CC5CC(CC(C5)C3)C4)o2)c1 [MLS000585389] | –
28% | > 50 µM | CCC1CCC(c2nnc(-c3ccc(Br)cc3)o2)CC1 (stereo not shown) [MLS000578382] | –
6% | > 100 µM | O=C(CCc1nnc(-c2ccccc2)o1)c1ccc(Cl)cc1 [MLS001019001] | –
66% | 1.1 µM | O=C(c1nnc(-c2ccc(Cl)cc2)o1)C1CCCC1 [MLS001007221] | potency relative to parent compound [1]: comparable activity
0% | > 100 µM | CCCc1nnc(-c2ccc(OC)cc2)o1 [MLS000756111] | –
0% | > 100 µM | Cc1ccc(NC(=O)CSc2ncn(-c3ccccc3)n2)cc1C [MLS000594570] | –
